Here are results for 22 compounds from patent publication US8158621B2, “Methods of treating or preventing autoimmune diseases with 2,4-pyrimidinediamine compounds” (Rigel Pharmaceuticals, Inc., priority 2002, dated 2012).

The subject of experiment [1] is bone marrow derived mast cells (BMMC). Nature of the experiment: BMMC high cell density IgE activation: hexosaminidase. It is filed as cell-based, mouse. As to conditions: high cell density; read-out: BMMC anti-IgE Hexos. The method, then:
After sensitizing, cells are counted, pelleted (1000 rpm, 5-10 minutes), and resuspended at 1-3×10^6 cells/ml in MT buffer. Add 100 ul of cell suspension to each well and 100 ul of compound dilutions. The final vehicle concentration is 0.5% DMSO. Incubate at 37° C. (5% CO2) for 1 hour. After 1 hour of compound treatment, stimulate cells with 6× stimulus (60 ng/ml DNP-BSA). Mix wells with the cells and allow plates to incubate at 37° C. (5% CO2) for one hour. After 1 hour incubation, pellet cells (10 minutes, 1000 RPM) and collect 200 ul per well of the supernatant, being careful not to disturb pellet, and transfer to a clean tube or 96-well plate. Place the supernatant plate on ice. During the 4-5 hour step (see next) perform the hexosiminidase assay. Resuspend cell pellet in 240 ul WEI-conditioned media containing 0.5% DMSO and corresponding concentration of compound. Incubate BMMC cells for 4-5 hours at 37° C. (5% CO2). After incubation, pellet cells (1000 RPM, 10 minutes) and collect 225 ul per well and place in −80° C. until ready to perform ELISAS. ELISAS are performed on appropriately diluted samples (determined empirically for each donor cell population so that the sample measurement falls within the standard curve) following the supplier's instructions.
Add 50 uL of BMMC cell supernatant (see above) to the hexoseaminidase substrate, place at 37° C. for 30 minutes and read the plate at 5, 10, 15, and 30 minutes on a spectrophotometer.

Experiment [2] concerns cultured human mast cells (CHMC). Nature of the experiment: CHMC low cell density ionomycin activation: tryptase assay. The settings on record: low cell density; read-out: CHMC Ionomycin Tryptase. The format is cell-based.
Experiment [3] concerns Human Jurkat T-cells (clone N). Nature of the experiment: Jurkat T-cell activation (anti-TCR, CD69 upregulation). It is filed as cell-based. In outline:
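Readout is CD69 upregulation by flow cytometry (anti-CD69-APC, 20 min at 4 °C) after 20 h anti-TCR (C305, 500 ng/ml) stimulation at 37 °C.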

The subject of a further experiment is Primary human B-cells. Nature of the experiment: Primary B-cell activation (α-IgM, CD69 upregulation). The format is cell-based. The settings on record: read-out: 1° B-Cell CD69 IC50. The method, then: Primary human B-cells were isolated from buffy coat, the white cell layer that forms between the red cells and the […] when anti-coagulated blood is centrifuged, or from fresh blood using CD19-Dynal® beads and a FACS. Buffy coat was obtained from the Stanford Medical School Blood Centre, prepared on the same day by the blood bank, stored and transported cold (with ice). The buffy coat (approx 35 mL) was placed in a 500 mL conical sterile centrifuge pot and cooled on ice, then diluted with cold PBS containing 0.2% BSA (Sigma: A7638) and sodium citrate (0.1%, Sigma: S-5570) (P—B—C) to a total volume of 200 mL and mixed gently. Fresh blood was collected from donors in 10 mL vacutainers containing heparin (1 vacutainer collects approximately 8.5 mL blood). The blood was cooled on ice, transferred into 50 mL falcon tubes (20 mL/tube) or a 500 mL conical sterile centrifuge pot, and diluted with an equal volume P—B—C.
25 mL diluted blood or buffy coat was layered onto 15 mL cold ficoll and placed back on ice. The ficoll layered blood was centrifuged (Beckman GS-6R) for 45 minutes at 2000 rpm, 4° C. to separate the Peripheral Blood Mononuclear Cells (PBMC) from the Red Blood Cells (RBC) and granulocytes. The top aqueous layer was then aspirated until 1 inch above the PBMC layer. The PBMCs were transferred from every 2 ficoll tubes into one clean 50 mL falcon tube (=approx 10 mL/tube). The transferred PBMCs were diluted 5× with icecold PBS with 0.2% BSA (P—B) and centrifuged for 20 min at 1400 rpm and 4° C. The supernatant (this may be cloudy) was then aspirated and the PBMCs resuspended into 25 mL P—B and the cells counted (using a 1:5 dilution) and kept on ice.
The cells were then positively selected using anti-CD 19 antibody coupled to magnetic beads (Dynal®) as per manufacturer's instructions. The approximate required amount of CD19-Dynal® beads (CD19-coated dyna beads M-450 (pabB), Dynal®) was calculated by estimating the number of B-cells as 5% of PBMCs counted and adding approximately10 beads per cell from the bead stock (4×10^8 beads/mL). The CD19-Dynal® beads were washed 2× in P—B in a 5 mL tube using the Dynal® magnet, then added into the suspended PBMCs. This mixture was then passed through the Dynal® magnet and washed several times to separate the bead-bound cells.
After separation, the beads and antibody were removed using Dynal® CD19-DETACHaBEAD® for 45 min at 30° C. Yield is typically 2×10^7 B-cells per buffy coat. B-cells were washed and resuspended as 1E6 cells/mL in RPMI1640+10% FBS+Penicillin/[…]+1 ng/mL IFNα8. Cells were rested overnight at 37° C. and 5% CO2.
The following day, cells were washed and resuspended in RPMI+2.5% FBS to 1×10^6 cells/mL. Cells were then aliquoted into a V-bottom 96-well plate (Corning) at 65 uL cells per well. By robot, 65 uL of a 2× compound was added to the cells with final concentration of DMSO at 0.2%, and incubated for 1 hr at 37° C. Cells were then stimulated with 20 uL 7.5× α-IgM from Jackson laboratories (final 5 ug/mL) for 24 hrs. At day 3, the cells were spun down and stained for CD69 and analyzed by FACS gated on the live cells (by light scatter).
Varied concentrations of compound were compared to solvent only to determine the inhibition of B-cell activation IC50 of each compound.

The nature of experiment [4]: Mouse Reverse Passive Arthus reaction (RPA reaction). The format is in vivo, C57BL/6 mice. The settings on record: oral, 200 mg/kg. The method, then: In this model system, test compounds are administered at several timepoints prior to administration of Abs and Ags. A solution of rabbit anti-OVA IgG (50 μg in 25 μl/mouse) is injected intradermally, and immediately following is an intravenous injection of chicken egg albumin (20 mg/kg of body weight) in a solution containing 1% Evans blue dye. The degree of edema and hemorrhage is measured in the dorsal skin of C57BL/6 mice using the Evan's Blue dye as an indicator of local tissue damage. Purified polyclonal rabbit IgG is used as a control.
Pretreatment time, in which the test compounds are administered prior to Ab/Ag challenge, depends on the pharmacokinetic (PK) properties of each individual compound. Four hours after induction of Arthus reaction, mice are euthanized, and tissues are harvested for assessment of edema.

The test system of experiment [5] is IgE-induced degranulation of tissue mast cells. Nature of the experiment: Mouse model of passive cutaneous anaphylaxis (PCA). As to conditions: positive controls. It is filed as in vivo. The method, then: This model provides a direct measure of IgE-induced degranulation of tissue mast cells. In this model, IgE primed animals are exposed to an allergen challenge, and the change in permeability of dermal vasculature that results from histamine release from mast cells is measured by change in the amount of dye leakage into surrounding tissue. Inhibition of mediator release by compounds that modulate mast cell degranulation is easily measured by extracting the dye from the tissue.
In the PCA assay mice are passively sensitized by intradermal injection with anti-dinitrophenol (DNP) IgE antibodies (Day −1). At predetermined times animals are treated with the test agent (Day 0). The modulatory effect of the agent on cutaneous mast cell degranulation is measured following intravenous injection of DNP conjugated to human serum albumin (HSA-DNP), together with Evans blue dye. The resulting cross-linking of the IgE receptor and subsequent mast cell degranulation-induced increase in vascular permeability is determined by measuring the amount of dye extravasation into the tissue. Dye is extracted from the tissue by formamide, and the absorbance of this extract is read at 620 nm.

In the next experiment the target is T1, Syk kinase (Homo sapiens, UniProt P43405).
T1 construct: purchased Upstate, Lake Placid NY
Nature of the experiment: Syk kinase biochemical fluorescence polarization assay. The settings on record: isolated Syk kinase, fluorescence polarization, 4 uM ATP. In general terms: In fluorescence polarisation assays a small probe gives low polarisation when free and higher when bound to something large.

Experiment [6] deals with cultured human mast cells (CHMC). Nature of the experiment: CHMC low cell density IgE activation: tryptase assay. It is filed as cell-based. The settings on record: low cell density; read-out: CHMC anti-IgE Tryptase. The essentials:
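Supernatant tryptase activity, assayed with substrate for 30 min at room temperature, served as the degranulation measure. Mast cells (1000-1500 per well depending on donor) sat 1 hr at 37° C in MT before a 30 min anti-IgE challenge at 37° C.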

SMILES strings stand for the structures. “And” between values parts separate entries of the source, which are not always exact repeats. Equal entries are not always repeated. Where two headings read alike, the source gives them in different places. A value given as a limit tells only on which side of the number the result lay.

As for `CNC(=O)COc1cccc(Nc2ncc(F)c(NC3CC3)n2)c1` [Compound R945372], the IC50 is 0.923 µM in experiment [1] and greater than 10 µM in experiment [2].
With `CNC(=O)COc1cccc(Nc2ncc(F)c(Nc3ccc(N4CCOCC4)cc3)n2)c1` [Compound R945367], the IC50 is 1.29 µM in experiment [1] and greater than 10 µM in experiment [2].
With `CNC(=O)COc1cccc(Nc2ncc(F)c(Nc3ccc(OC(F)(F)F)c(C(=O)N4CCOCC4)c3)n2)c1` [Compound R950411], the IC50 in experiment [1] is 4 µM; in experiment [2], greater than 10 µM.
For the compound `CNC(=O)COc1cccc(Nc2ncc(F)c(Nc3ccc4c(c3)NC(=O)C(C)(C)O4)n2)c1` [Compound R940323], the IC50 in experiment [3] is 0.557 µM; in the experiment with Primary human B-cells, 0.11 µM. For the same compound, the “inhibition of edema formation” value in experiment [4] (60 minutes prior to challenge) is 32.4%. For the same compound, the “% inhibition to vehicle control Edema Size ± SEM” value was 5.5 ± 9.3% in experiment [4] (pretreatment time 0.5 hrs); 32.4 ± 13.0% and 32.4% in experiment [4] (pretreatment time 1 hrs); 26.9 ± 11.2% in experiment [4] (pretreatment time 2 hrs).
With `CN(C)CCOC(c1ccccc1)c1ccccc1` [diphenhydramine, reference compound], in experiment [5], the PCA response entry is “inhibit the PCA response”.
For `CNC(=O)COc1cccc(Nc2ncc(F)c(Nc3ccc(OC(F)(F)F)c(C(=O)NC)c3)n2)c1` [Compound R950407], the IC50 in experiment [1] and in experiment [2] was greater than 10 µM throughout.
`CNC(=O)COc1cccc(Nc2ncc(F)c(Nc3ccc(N4CCN(C(=O)OC)CC4)cc3)n2)c1` [Compound R945368]: the IC50 in experiment [1] is 1.71 µM; in experiment [2] it was greater than 10 µM.
On the same counts, the results for `CCOC(=O)CCn1ncc2cc(Nc3ncc(F)c(Nc4ccc(OC)nc4OC)n3)ccc21` [Compound R935381] are 7.74 µM and greater than 10 µM.
Consider `CNC(=O)COc1cccc(Nc2ncc(F)c(Nc3ccc(OC(F)(F)F)c(C(=O)N4CCCCC4)c3)n2)c1` [Compound R950409], for which the IC50 in experiment [1] is 3.24 µM; in experiment [2], greater than 10 µM.
On the same counts, the results for `CNC(=O)COc1cccc(Nc2ncc(F)c(Nc3ccc(OC(F)(F)F)c(C(=O)NCCN)c3)n2)c1` [Compound R950406] are greater than 10 µM and greater than 10 µM.
For the compound `Oc1c(Cl)cc(Nc2ncc(F)c(Nc3ccc(OC(F)(F)F)c(Cl)c3)n2)cc1Cl` [Compound R927046], the IC50 is 2.4 µM in experiment [1] and greater than 10 µM in experiment [2].
As to `CC(=O)N(C)c1ccc(Nc2ncc(F)c(NC3CC3)n2)cc1` [Compound R945369], the IC50 is 1.27 µM in experiment [1], greater than 10 µM in experiment [2] and 1.85 µM on Syk kinase.
In the case of `Fc1cnc(Nc2ccc(OCc3ccccc3)c(Cl)c2)nc1Nc1ccc(OCc2ccccc2)c(Cl)c1` [Compound R926965], the IC50 in experiment [1], in experiment [6] and in experiment [2] was greater than 10 µM in each case.
For `CNC(=O)CCn1ncc2cc(Nc3ncc(F)c(Nc4ccc(F)c(F)c4)n3)ccc21` [Compound R935385], the IC50 was 0.217 µM in experiment [1] and greater than 10 µM in experiment [2].
Take `CNCCNC(=O)c1cc(Nc2nc(Nc3cccc(OCC(=O)NC)c3)ncc2F)ccc1OC(F)(F)F` [Compound R950408]: the IC50 in experiment [1] is 4.82 µM; in experiment [2], greater than 10 µM.
For `CC1(C)Oc2ccc(Nc3nc(Nc4ccc5cc[nH]c5c4)ncc3F)cc2NC1=O` [Compound R926982], the IC50 in experiment [6] was 0.12 µM; in the experiment with Primary human B-cells, 0.394 µM; in experiment [2], greater than 10 µM; at Syk kinase it was 0.028 µM.
As for `COc1cc(Nc2ncc(F)c(Nc3ccc4c(c3)NC(=O)[C@H](C)O4)n2)cc(OC)c1` [Compound R908953], the IC50 amounted to 1.98 µM in the experiment with Primary human B-cells and 0.017 µM against Syk kinase.
With `CCOc1ccc(Nc2nc(Nc3ccc4c(c3)OCCO4)ncc2F)cc1` [Compound R926213], the IC50 was 8.86 µM in experiment [3] (Homo sapiens, Jurkat) and 44 µM with Primary human B-cells (Homo sapiens, B-cell).
For the compound `CNC(=O)COc1cccc(Nc2ncc(F)c(Nc3ccc(OC(F)(F)F)c(C(=O)NC[C@@H](O)CO)c3)n2)c1` [Compound R950410], the IC50 in experiment [1] and in experiment [2] was greater than 10 µM in each case.
As to `COc1ccc(Nc2nc(Nc3cc(Cl)c(O)c(Cl)c3)ncc2F)cc1Cl` [Compound R927044], the IC50 in experiment [1] is 4.28 µM; in experiment [2] it was greater than 10 µM.
In the same order, the values of `CNC(=O)CCn1ncc2cc(Nc3ncc(F)c(Nc4ccc(Cl)cc4)n3)ccc21` [Compound R935382] are 0.2 µM and greater than 10 µM.
With `CCOC(=O)CCn1ncc2cc(Nc3ncc(F)c(Nc4ccc(F)c(F)c4)n3)ccc21` [Compound R935384], the IC50 in experiment [1] and in experiment [2] was greater than 10 µM each time.
